Columns and labels:
[1] = target: T1, Nicotinamide phosphoribosyltransferase (Homo sapiens, UniProt P43490); experiment: Inhibition of human full length C-terminal flag/His-tagged NAMPT (1 to 491 residues) expressed in HEK293-6E cells by TR-FRET assay
Target sequence in this assay (P43490 whole entry, the tested form may be a part): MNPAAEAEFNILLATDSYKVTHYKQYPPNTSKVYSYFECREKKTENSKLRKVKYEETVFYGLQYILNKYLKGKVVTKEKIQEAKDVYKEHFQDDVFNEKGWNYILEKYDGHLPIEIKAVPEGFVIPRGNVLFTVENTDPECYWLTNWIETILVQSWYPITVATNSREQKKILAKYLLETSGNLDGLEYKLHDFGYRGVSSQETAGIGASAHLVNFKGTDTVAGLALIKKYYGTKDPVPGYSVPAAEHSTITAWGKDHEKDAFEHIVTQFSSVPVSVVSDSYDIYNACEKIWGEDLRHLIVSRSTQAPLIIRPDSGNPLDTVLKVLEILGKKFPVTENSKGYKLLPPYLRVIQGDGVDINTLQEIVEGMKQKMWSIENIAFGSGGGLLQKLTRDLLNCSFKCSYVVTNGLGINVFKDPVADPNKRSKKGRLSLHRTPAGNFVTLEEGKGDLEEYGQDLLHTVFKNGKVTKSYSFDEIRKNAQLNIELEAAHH

[2] = target: T1, Nicotinamide phosphoribosyltransferase; experiment: Inhibition of NAM binding to human full length C-terminal flag/His-tagged NAMPT (1 to 491 residues) at 400 uM by STD-NMR spectroscopic analysis relative to control
Target sequence in this assay (P43490 whole entry, looked up, the tested form may be a part): as the sequence (P43490 whole entry, the tested form may be a part) above

IC50 [1] [µM] | inhibition [2] [%] | SMILES
850 | 80 | O=C(NCc1ccncc1)Nc1ccc(F)c(F)c1
> 1000 | 80 | O=C1C2CCC2C(=O)N1CCc1ccccn1 (stereo unspecified)
8 | 80 | Cc1ccc(Cn2nnc3cc(C(N)=O)ccc32)cc1
360 | 80 | CCCc1cc(=O)[nH]c(Nc2ccccc2F)n1
10 | – | O=C1OCCC/C1=C\Nc1ccccc1
90 | – | O=C(Cc1ccccc1)Nc1ccc2nc[nH]c2c1
0.08 | – | CC(C)CCNC(=O)c1ccc(NC(=O)Nc2ccc3nc[nH]c3c2)cc1

Reference: ChEMBL document CHEMBL4184099, “Fragment-based discovery of a potent NAMPT inhibitor” (Bioorg Med Chem Lett, 2018)
